Data taken from patent US20130224239A1, “ALCOHOLIC EXTRACT OF FUNGI OF GENUS […] AND USE THEREOF” (KING SAUD UNIVERSITY, priority 2011, published 2013).
≈ marks a conversion by molar mass, not a printed value.

Experiments:
Type in all cases: cell-based
[1] = tested on: Salmonella typhimuium (RCMB 0104); test: Antimicrobial screening, disc diffusion; conditions: Salmonella typhimuim; compounds isolated from Cunninghamella elegans
Experimental: (§1) The alcoholic extracts obtained were used for testing their antimicrobial activity. Each extract (0.5 g) was dissolved in 10 ml water. Same concentrations for the successive extracts (using diethyl ether, chloroform, ethyl acetate and n-butanol) were also prepared.
(§2) The representatives of Gram negative bacteria, namely Salmonella typhimuium (RCMB 0104), Escherichia coli (RCMB 0103), Pseudomonas aeruginosa (RCMB 0102) and Gram positive bacteria, namely Bacillus subtilis (RCMB 0107), Staphylococcus aureus (RCMB 0106), Streptococcus pyogenes (RCMB 0109), unicellular fungi, namely Candida albicans (RCMB 5002) and filamentous fungi, namely Aspergillus fumigatus (RCMB 2003) and Penicllium expansum (RCMB 1006) were used as test organisms (RCMB: The Regional Center for Mycology and Biotechnology, Al-azhar University Nasser City, Cairo, Egypt).
(§3) For antimicrobial screening the well known disc diffusion and agar well diffusion methods were used, together with the determination of minimum inhibitory concentration (MIC), see Duguid et al., Microbial Infections, The English Language Book Society, Churchill Livingston, Edingburgh, London, 1978; vol. 1, page 110.
(§4) Disc diffusion method: The agar disc diffusion method is employed for the determination of antimicrobial activities of the extracts of the investigated fungal species. Sterilized paper discs (Whatman No. 1) ([…]) were separately soaked in the extracts and transferred onto the surface of growth media seeded with the test organism. After incubation period, following suitable conditions for the test organism, the diameter of the inhibition zone around the discs was measured in millimeters.
Each fungal species was grown on malt extract media at 28±2° C. for 14 days. The metabolites of the fungal species were screened for antimicrobial activity.

[2] = tested on: Candida albicans (RCMB 5002); test: Antimicrobial screening, disc diffusion; conditions: compounds isolated from Cunninghamella elegans
Experimental: as §1, §2, §3
as §4, with “millimeters. The obtained result was the mean of three experiments.” for “millimeters.”
(§5) Each fungal species was grown on malt extract media at 28±2° C. for 14 days. The metabolites of the fungal species were screened for antimicrobial activity. The inhibition zones around each disc were measured, in millimeter, and recorded (Tables 1).

[3] = tested on: Pseudomonas aeruginosa (RCMB 0102); test: Antimicrobial screening, disc diffusion; conditions: Pseudomonas aeurginosa; compounds isolated from Cunninghamella elegans
Experimental: as §1, §2, §3
as §4, with “millimeters. The obtained result was the mean of three experiments.” for “millimeters.”
as §5

[4] = tested on: Penicllium expansum (RCMB 1006); test: Antimicrobial screening, disc diffusion; conditions: Penicillium expansum; compounds isolated from Cunninghamella elegans
Experimental: as §1, §2, §3
as §4, with “millimeters. The obtained result was the mean of three experiments.” for “millimeters.”
as §5

[5] = tested on: Staphylococcus aureus (RCMB 0106); test: Antimicrobial screening, disc diffusion; conditions: compounds isolated from Cunninghamella elegans
Experimental: as §1, §2, §3
as §4, with “millimeters. The obtained result was the mean of three experiments.” for “millimeters.”
as §5

[6] = tested on: Aspergillus fumigatus (RCMB 2003); test: Antimicrobial screening, disc diffusion; conditions: compounds isolated from Cunninghamella elegans
Experimental: as §1, §2, §3
as §4, with “millimeters. The obtained result was the mean of three experiments.” for “millimeters.”
as §5

[7] = tested on: Streptococcus pyogenes (RCMB 0109); test: Antimicrobial screening, disc diffusion; conditions: compounds isolated from Cunninghamella elegans
Experimental: as §1, §2, §3
as §4, with “millimeters. The obtained result was the mean of three experiments.” for “millimeters.”
as §5

[8] = tested on: Bacillus subtilis (RCMB 0107); test: Antimicrobial screening, disc diffusion; conditions: compounds isolated from Cunninghamella elegans
Experimental: as §1, §2, §3
as §4, with “millimeters. The obtained result was the mean of three experiments.” for “millimeters.”
as §5

[9] = tested on: Escherichia coli (RCMB 0103); test: Antimicrobial screening, disc diffusion; conditions: compounds isolated from Cunninghamella elegans
Experimental: as §1, §2, §3
as §4, with “millimeters. The obtained result was the mean of three experiments.” for “millimeters.”
as §5

[10] = tested on: Staphylococcus aureus; test: Minimum inhibitory concentration, agar well diffusion; conditions: against Staphylococcus aureus
Excerpt: as §3
Agar well diffusion method: On the other hand, the agar well diffusion method was employed for determination of the minimum inhibitory concentration (MIC). The test organisms were separately seeded in the agar medium. The wells (10 mm in diameter) were cut from the agar and […] (different concentrations) was transferred into them. After incubation period, following suitable conditions for the test organism, the diameter of the inhibition zone around the discs was measured in millimeters. The obtained result was the mean of three experiments.
The minimum inhibitory concentration (MIC) of Cunninghamella blakesleeana, C. elegans, C. homothallica and successive extracts and isolated compounds of Cunninghamella elegans against Staphylococcus aureus was determined.
Minimum inhibitory concentration (MIC): The lowest concentration of an antimicrobial agent that will inhibit a visible growth of a microorganism after overnight incubation.

O=c1ccn([C@@H]2O[C@H](CO)[C@@H](O)[C@H]2O)c(=O)[nH]1 [Compound 5, pyrimidine-2,4-dion, 1-ribose]
Diameter of inhibition zone [1]: 00.0 mm | Diameter of inhibition zone [2]: 00.0 mm | Diameter of inhibition zone [3]: 00.0 mm | Diameter of inhibition zone [4]: 00.0 mm | Diameter of inhibition zone [5]: 11.0 ± 0.1 mm | Diameter of inhibition zone [6]: 00.0 mm | Diameter of inhibition zone [7]: 00.0 mm | Diameter of inhibition zone [8]: 00.0 mm | Diameter of inhibition zone [9]: 00.0 mm | Minimum inhibitory concentration [10]: 150 µg/mL (≈ 614 µM)

C=C(CC(=O)O)C(=O)OC [Compound 8, 3-(methoxycarbonyl)-but-3-enoic acid]
Diameter of inhibition zone [1]: 00.0 mm | Diameter of inhibition zone [2]: 00.0 mm | Diameter of inhibition zone [3]: 00.0 mm | Diameter of inhibition zone [4]: 00.0 mm | Diameter of inhibition zone [5]: 07.0 ± 0.5 mm | Diameter of inhibition zone [6]: 00.0 mm | Diameter of inhibition zone [7]: 00.0 mm | Diameter of inhibition zone [8]: 00.0 mm | Diameter of inhibition zone [9]: 00.0 mm | MIC ([10]; read-out: Minimum inhibitory concentration): 210 µg/mL (≈ 1460 µM)
